Columns and labels:
Dengue virus (DENV) = test system: Dengue virus (DENV); design: method as in PMID 34152811; details: read-out: DENV replication EC50; cited from earlier work
Zika virus (ZIKV) = test system: Zika virus (ZIKV); design: method as in PMID 34152811; details: read-out: ZIKV replication EC50; cited from earlier work
[1] = test system: human immunodeficiency virus type 1 (HIV-1); design: method as in PMID 34152811; details: cited from earlier work
[2] = test system: HaCaT, HeLa and A431 cells; experiment: γ-H2AX foci immunofluorescence (DNA damage); format: cell-based, human; details: 10 μM, 24 h, all tested cell lines
Method: Cells were seeded in 35 mm dishes on micro cover glasses (BDH) and treated with the metabolite at a concentration of 10 μM. […] Cells were permeabilized with ice-cold 0.5% Triton X-100 for 5 min and then washed with PBS. Cells were then incubated with phospho-histone H2A.X (Ser139) antibody (from Cell Signaling Technologies 9542, Boston, MA, USA) for 1 h, followed by DAPI (Sigma-Aldrich) for 3 min and washed with PBS/0.05% Tween. Coverslip was mounted with Ibidi mounting medium (Ibidi GmbH, Martinsried, Germany). Images were taken with a Zeiss confocal laser-scanning microscope Axio Observer (Zeiss, Ostfilden, Germany) (scale bar, 20 μm). A 40× objective was used and image analysis was performed using Fiji ImageJ open source software project (https://imagej.net/imaging/). All the images were taken with the same setting.

HaCaT cells = experiment: DCFDA assay (ROS); format: cell-based, human; details: for Production of reactive oxygen species (ROS): 10 µM, HaCaT cells
Method: N-p-coumaroyltyramine antioxidant activity was measured using 2′−7′dichlorofluorescein diacetate (DCFDA), a non-fluorescent compound permeable to the cell membrane, which can be oxidized by reactive oxygen species (ROS) giving a fluorescent compound. […] The medium was removed after 4 h and 1 mM (3%) H2O2 was added for 45 min, 1.5 and 2.0 h. Cells were washed with PBS and a fresh medium with DCFDA ([…]) was added for 45 min, then DCFDA was removed by washing in PBS and the cells were harvested. The measurement of ROS was obtained using the Sinergy H4 microplate reader (Gen5 2.07, Thermofisher, Waltham MA, USA). The fluorescence emitted from the cells treated with DCFDA was compared to the untreated cells. Trolox was used as a positive control. Values shown in the plot are mean ± SD of sixfold determinations. The mean and the standard deviation were calculated on biological triplicates using GraphPad Prism 8.0.2 software (GraphPad, San Diego, CA, USA).

[3] = test system: VSV-G pseudotyped HIV-1GFP; experiment: VSV-G pseudotyped HIV-1GFP infectivity assay in THP-1 cells; format: cell-based; details: for Fold decrease in infection: 50 μM, THP-1, 72 h; for Infection (mean % HIV-1GFP+ cells): 100 μM, THP-1, MOI 1, 72 h, DMSO 8.16%; for Infection levels at lower concentrations: below 50 μM (12.5, 25 μM)
[4] = test system: acetylcholinesterase (AChE); experiment: Anti-acetylcholinesterase assay (Ellman); format: biochemical
Method: In vitro acetylcholinesterase (AChE) activity was assessed exactly as in Ka et al. (2020) following Ellman’s colorimetric protocol with the Acetylcholinesterase Assay Kit (Abcam Inc., Boston, MA, USA). Briefly, 50 µL serial dilutions (3.9–500 µM) of compounds 1–5 were prepared in Tris-HCl pH = 7.9 buffer into designated wells of a clear 96 well-plate. A total of 5 µL of DTNB was added in each well, then 50 µL of diluted acetycholinesterase was added. The plate was incubated for 10 min in the dark. Matched concentrations of DMSO were used as a negative control. Kinetic of reaction was measured in a multiple plate reader at 410 nm in kinetic mode for 40 min at room temperature. The percentage of anti-AChE inhibition was calculated according to the following formula: 100 − [((E − S)/E) × 100], where E is the activity of the enzyme with matched concentrations of DMSO and S is the activity of the enzyme with the test sample.

[5] = test system: HaCaT immortalized keratinocytes; details: for Effect on HaCaT cell viability: incubation extended for 48 h, 0.5 to 10 μM
Description: (§2) HeLa cervical cancer cells (CCL-2) and A431 (ATCC-CRL1555) human epidermoid carcinoma cells were from American Type Culture Co [...

in vitro [6] = details: human, HaCaT immortalized keratinocytes
Description: as §2

in vitro [7] = details: human, A431 epidermoid carcinoma cells
Description: as §2

in vitro [8] = details: human; for IC50 at 24 h: HeLa cervical cancer cells
Description: as §2

THP-1 cells = experiment: Propidium iodide cytotoxicity in THP-1 cells; details: 72 h; for Dead cells: all concentrations tested (12.5-100 μM); for PI+ cells: 100 μM
α-glucosidase = α-glucosidase inhibitor assay (colorimetric kit); format: biochemical
Method: (§1) α-glucosidase and α-amylase inhibitor screening kits (colorimetric) were purchased from Biovision (Milpitas, CA, USA). In total, 10 mM of stock solution of all the tested compounds were dissolved in DMSO and serially diluted in the assay buffer of each kit. Experiments were performed according to the manufacturer’s protocol. Briefly, for the α-glucosidase assay, 10 µL of serially diluted compounds at the corresponding concentration ([…]–1 mM) were added into designated wells of clear 96 well-plates. Subsequently, 10 µL of the α-glycosidase enzyme was added to each well and volume was adjusted to 80 µL and plates were incubated for 15-min at room temperature in dark condition. Then, 20 µL of α-glycosidase substrate mixture was added in all wells and kinetic of reaction was measured at OD: 410 nm for 60 min at 2 min intervals by using a multiplate reader, Biotek instrument, Inc., Canada. Enzyme control (no inhibitor), background control (no enzyme), solvent control (DMSO) and inhibitor control (acarbose) were included in the plates. For the α-amylase assay, 50 µL of serially diluted compounds (3.25 µM to 500 µM) were added into a clear 96-well plate with 50 µL of assay buffer and 50 µL of α-amylase enzymes. The plate was incubated at room temperature in the dark for 10 min. Then 50 µL of the α-amylase substrate was added in all wells. The kinetic of reaction was measured at OD:410 nm for 26 min at intervals of 2 min by using a multiplate reader. Control α-amylase inhibitor was provided by the manufacturer, enzyme control, background control and solvent control were all included. Enzyme inhibition was calculated according to Zhang et al. (2014). In summary, ODs were plotted according to the time for each sample. Areas under the curve (AUC) were calculated, and enzyme inhibition was measured as 100−(AUCcompound/AUCenzyme) × 100 for each dilution of each compound.

[9] = test system: ovarian carcinoma, melanoma and non-small lung cancer cells; design: method as in PMID 23659371; details: cited from earlier work
α-amylase = α-amylase inhibitor assay (colorimetric kit); format: biochemical; details: concentrations 3.9-250 μM, 26 min kinetics
Method: as §1, with “For the α-amylase assay, 50 µL of serially diluted compounds (3.25 µM to 500 µM) were added into a clear 96-well plate with 50 µL of assay buffer and 50 µL of α-amylase enzymes. The plate was incubated at room temperature in the dark for 10 min. Then 50 µL of the α-amylase substrate was added in all wells.” left out, “Control α-amylase inhibitor was provided by the manufacturer, enzyme control, background control and solvent control were all included.” left out, “In summary, ODs were plotted according to the time for each sample.” left out

[10] = test system: A431 human epidermoid carcinoma cells; details: 0.5 to 10 μM, 24 and 48 h
Description: as §2

[11] = test system: HeLa cervical cancer cells; details: 0.5 to 10 μM, 24 and 48 h
Description: as §2

[12] = increasing inhibition from 15.6 μM to 250 μM

Structure (SMILES)	Nuclear γH2AX foci [2]	Production of reactive oxygen species (ROS) (HaCaT cells)	Fold decrease in infection [3] [fold]	Infection (mean % HIV-1GFP+ cells) [3] [%]	Infection levels at lower concentrations [3]	AChE inhibition [4, 12]	Effect on HaCaT cell viability [5]	IC50 at 24 h (in vitro [6]) [µM]	IC50 at 24 h (in vitro [7]) [µM]	IC50 at 24 h (in vitro [8]) [µM]	Dead cells (THP-1 cells)	α-glucosidase inhibition (α-glucosidase; 1 mM) [%]	PI+ cells (THP-1 cells) [%]	also measured
COc1cc2c(cc1O)CN(C)C[C@H]2c1ccc(O)cc1 [cherylline]	–	–	–	–	–	–	–	–	–	–	–	–	–	EC50 (Dengue virus (DENV)): 8.8 µM; EC50 (Zika virus (ZIKV)): 20.3 µM; Effect on HIV-1 infection [1]: ineffective
COc1ccc(CC2COc3cc(OC)c(OC)c(OC)c3C2=O)cc1 (centres unmarked) [Compound 4, 5,6,7-trimethoxy-3-(4-methoxybenzyl)chroman-4-one]	remarkable increase	did not increase	2.4	2.76	decreased infection levels	up to 20%	significant reduction	> 10	6.5	5.5	30–40%	–	–	–
COc1cc2c(c(OC)c1OC)C(=O)C(O)(Cc1ccc(O)cc1)CO2 (centres unmarked) [Compound 2, 3-hydroxy-5,6,7-trimethoxy-3-(4-hydroxybenzyl)chroman-4-one]	–	–	–	4.03	–	up to 20%	–	> 10	> 10	4	–	50	4.15	–
COc1ccc(CC2(O)COc3cc(OC)c(OC)c(OC)c3C2=O)cc1 (centres unmarked) [Compound 3, 3-hydroxy-5,6,7-trimethoxy-3-(4-methoxybenzyl)chroman-4-one]	remarkable increase	did not increase	2.0	2.51	decreased infection levels	–	significant reduction	> 10	4	4.5	30–40%	50	–	AChE enzyme activity blocked ([4]; concentrations increased from 3.9 to 500 μM): 15–30%; Antiproliferative activity [9]: submicromolar concentration
O=C(/C=C/c1ccc(O)cc1)NCCc1ccc(O)cc1 [Compound 5, (E)-N-(4-hydroxyphenethyl)-3-(4-hydroxyphenyl)acrylamide]	–	–	1.6	2.12	–	–	–	–	–	–	–	–	5.97	Antioxidant activity: ROS induced by H2O2 (HaCaT cells; 10 and 100 µM, 4 h pre-treatment, H2O2 1 mM, Trolox positive control): antioxidant activity comparable to Trolox; α-glucosidase inhibition (α-glucosidase; all concentrations tested, 0.01-1000 μM): nearly completely inhibited; IC50 (α-amylase): 40 µM; AChE inhibition ([4]; high concentrations): weakly inhibited; Effect on HaCaT cell viability at the lower concentrations ([5]; 0.5 and 1 μM): significantly increase HaCaT cell viability; Cytotoxic activity IC50, HaCaT ([5]; MTT, 24 h of incubation): Not detected; Toxicity on A431 cancer cells [10]: toxic; Toxicity on HeLa cancer cells [11]: toxic
COc1cc2c(c(OC)c1OC)C(=O)C(Cc1ccc(O)cc1)CO2 (centres unmarked) [Compound 1, 5,6,7-trimethoxy-3-(4-hydroxybenzyl)chroman-4-one]	–	–	–	3.78	–	up to 20%	–	> 10	6	1	–	50	8.74	viability at 48 h, 5 µM (in vitro [8]; HeLa cervical cancer cells (CCL-2)): < 20%
